{"source": "ChEMBL document CHEMBL6087454", "about": "“Identification of Novel Organo-Se BTSA-Based Derivatives as Potent, Reversible, and Selective PPARγ Covalent Modulators for Antidiabetic Drug Discovery” (J Med Chem, 2025)", "key": {"[1]": {"biological_target": "T1, Peroxisome proliferator-activated receptor alpha (Homo sapiens) (UniProt Q07869)", "T1 sequence (whole entry)": "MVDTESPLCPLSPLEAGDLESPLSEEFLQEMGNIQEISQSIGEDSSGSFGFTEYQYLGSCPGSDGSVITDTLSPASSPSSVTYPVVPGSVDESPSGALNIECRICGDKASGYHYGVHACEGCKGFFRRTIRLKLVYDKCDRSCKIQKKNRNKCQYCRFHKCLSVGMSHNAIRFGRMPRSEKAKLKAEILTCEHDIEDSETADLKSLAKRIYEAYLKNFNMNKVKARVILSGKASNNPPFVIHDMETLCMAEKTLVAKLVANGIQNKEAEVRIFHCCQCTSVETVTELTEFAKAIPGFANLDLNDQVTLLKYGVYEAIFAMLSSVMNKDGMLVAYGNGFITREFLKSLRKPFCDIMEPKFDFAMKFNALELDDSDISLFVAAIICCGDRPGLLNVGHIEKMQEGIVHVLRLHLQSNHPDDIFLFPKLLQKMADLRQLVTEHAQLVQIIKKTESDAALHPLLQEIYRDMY", "assay": "Binding affinity to PPAR-alpha (unknown origin) at 0.5 uM in presence of fluormone pan-PPAR green tracer by TR-FRET assay"}, "[2]": {"biological_target": "T2, Peroxisome proliferator-activated receptor gamma (Homo sapiens) (UniProt P37231)", "T2 sequence (whole entry)": "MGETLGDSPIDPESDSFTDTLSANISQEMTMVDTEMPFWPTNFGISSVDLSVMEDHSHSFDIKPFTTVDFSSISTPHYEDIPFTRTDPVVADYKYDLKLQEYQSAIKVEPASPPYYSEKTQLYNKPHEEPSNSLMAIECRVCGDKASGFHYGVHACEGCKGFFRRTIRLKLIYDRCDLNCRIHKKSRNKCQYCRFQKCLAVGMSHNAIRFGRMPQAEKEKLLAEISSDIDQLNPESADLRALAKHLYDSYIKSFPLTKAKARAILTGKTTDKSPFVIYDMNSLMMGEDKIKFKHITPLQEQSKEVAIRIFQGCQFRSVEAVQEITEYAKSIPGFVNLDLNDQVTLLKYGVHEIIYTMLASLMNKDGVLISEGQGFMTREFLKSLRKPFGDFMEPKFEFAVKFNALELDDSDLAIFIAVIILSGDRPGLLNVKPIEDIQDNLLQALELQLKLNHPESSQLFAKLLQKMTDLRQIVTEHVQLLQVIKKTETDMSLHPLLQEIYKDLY", "assay": "Reversible covalent binding affinity to recombinant GST-tagged human PPAR-gamma ligand binding domain (E235 to Y505 residues) extracted from Escherichia coli BL21 (DE3) cells at 500 nM measured upto 240 mins by TR-FRET assay", "settings": "filed as partial agonist"}, "[3]": {"system": "3T3-L1", "assay": "Inhibition of adipogenesis in mouse 3T3-L1 cells assessed as downregulation of LPL gene expression at 1 uM measured after 48 hrs by RT-qPCR analysis", "assay_type": "functional, cell-based"}, "[4]": {"system": "3T3-L1", "assay": "Insulin sensitizing activity in mouse 3T3-L1 cells assessed as downregulation of PTP1B gene expression at 1 uM measured after 48 hrs by RT-qPCR analysis", "assay_type": "functional, cell-based"}, "[5]": {"assay": "Toxicity in male db/db mouse model assessed as body weight gain at 2.5 to 10 mg/kg/day, ip administered for 4 weeks", "assay_type": "organism-based", "settings": "in vivo, 672 h, dose 2.5-10 mg/kg/day"}, "[6]": {"system": "Mus musculus", "assay": "Antidiabetic activity in male db/db mouse model assessed as improvement in glucose tolerance at 2.5 to 10 mg/kg/day, ip preadministered for 4 weeks followed by glucose administration after 4 to 6 hrs of fasting and measured after 120 mins by intraperitoneal glucose tolerance test", "assay_type": "functional, organism-based", "settings": "dose 2.5-10 mg/kg/day"}, "[7]": {"system": "Mus musculus", "assay": "Antidiabetic activity in male db/db mouse model assessed as improvement in insulin tolerance at 2.5 to 10 mg/kg/day, ip preadministered for 4 weeks followed by glucose administration after 4 to 6 hrs of fasting and measured after 120 mins by intraperitoneal insulin tolerance test", "assay_type": "functional, organism-based", "settings": "dose 2.5-10 mg/kg/day"}, "[8]": {"assay": "Toxicity in male db/db mouse model assessed as effect on kidney morphology at 2.5 to 10 mg/kg/day, ip administered for 4 weeks", "assay_type": "organism-based", "settings": "in vivo, 672 h, dose 2.5-10 mg/kg/day"}, "[9]": {"assay": "Toxicity in male db/db mouse model assessed as effect on liver morphology at 2.5 to 5 mg/kg, ip administered for 4 weeks", "assay_type": "organism-based", "settings": "in vivo, 672 h, dose 2.5-5 mg/kg"}, "[10]": {"assay": "Toxicity in male db/db mouse model assessed as decrease in liver weight at 10 mg/kg, ip administered for 4 weeks", "assay_type": "organism-based", "settings": "in vivo, 672 h"}, "[11]": {"assay": "Toxicity in male db/db mouse model assessed as increase in brown adipose tissue weight at 2.5 to 10 mg/kg/day, ip administered for 4 weeks", "assay_type": "organism-based", "settings": "in vivo, 672 h, dose 2.5-10 mg/kg/day"}, "[12]": {"assay": "Toxicity in male db/db mouse model assessed as increase in lipid accumulation in liver at 2.5 to 10 mg/kg/day, ip administered for 4 weeks by Oil red O staining based analysis", "assay_type": "organism-based", "settings": "in vivo, 672 h, dose 2.5-10 mg/kg/day"}, "[13]": {"system": "Mus musculus", "assay": "In vivo inhibition of Erk/Cdk5-mediated PPAR-gamma phosphorylation at Ser273 residue in male db/db mouse model assessed as decrease in phosphorylated-ERK expression in white adipose tissue at 2.5 to 10 mg/kg/day, ip administered for 4 weeks by Western blotting analysis", "assay_type": "functional, organism-based", "settings": "dose 2.5-10 mg/kg/day"}, "[14]": {"system": "Mus musculus", "assay": "In vivo inhibition of Erk/Cdk5-mediated PPAR-gamma phosphorylation at Ser273 residue in male db/db mouse model assessed as decrease in phosphorylated-ERK expression in liver at 2.5 to 10 mg/kg/day, ip administered for 4 weeks by Western blotting analysis", "assay_type": "functional, organism-based", "settings": "dose 2.5-10 mg/kg/day"}, "[15]": {"system": "Mus musculus", "assay": "Antidiabetic activity in male db/db mouse model assessed as increase in ADIPOQ protein abundance in liver at 2.5 to 10 mg/kg/day, ip administered for 4 weeks by Western blotting analysis", "assay_type": "functional, organism-based", "settings": "dose 2.5-10 mg/kg/day"}, "[16]": {"system": "Mus musculus", "assay": "Antidiabetic activity in male db/db mouse model assessed as decrease in PDK4 protein abundance in liver at 2.5 to 10 mg/kg/day, ip administered for 4 weeks by Western blotting analysis", "assay_type": "functional, organism-based", "settings": "dose 2.5-10 mg/kg/day"}, "[17]": {"system": "Mus musculus", "assay": "Antidiabetic activity in male db/db mouse model assessed as downregulation of LPL gene expression in white adipose tissue at 2.5 to 10 mg/kg/day, ip administered for 4 weeks by RT-qPCR analysis", "assay_type": "functional, organism-based", "settings": "dose 2.5-10 mg/kg/day"}, "[18]": {"system": "Mus musculus", "assay": "Antidiabetic activity in male db/db mouse model assessed as downregulation of FASN gene expression in white adipose tissue at 2.5 to 10 mg/kg/day, ip administered for 4 weeks by RT-qPCR analysis", "assay_type": "functional, organism-based", "settings": "dose 2.5-10 mg/kg/day"}, "[19]": {"system": "Mus musculus", "assay": "Antidiabetic activity in male db/db mouse model assessed as downregulation of C/EBPalpha gene expression in white adipose tissue at 2.5 to 10 mg/kg/day, ip administered for 4 weeks by RT-qPCR analysis", "assay_type": "functional, organism-based", "settings": "dose 2.5-10 mg/kg/day"}, "[20]": {"system": "Mus musculus", "assay": "Antidiabetic activity in male db/db mouse model assessed as downregulation of PPARgamma gene expression in liver at 2.5 to 10 mg/kg/day, ip administered for 4 weeks by RT-qPCR analysis", "assay_type": "functional, organism-based", "settings": "dose 2.5-10 mg/kg/day"}, "[21]": {"system": "Mus musculus", "assay": "Antidiabetic activity in male db/db mouse model assessed as downregulation of LPL gene expression in liver at 2.5 to 10 mg/kg/day, ip administered for 4 weeks by RT-qPCR analysis", "assay_type": "functional, organism-based", "settings": "dose 2.5-10 mg/kg/day"}}, "note": "The source made the active and inactive calls. No cut-off for these calls is given here."}
{"smiles": "Cc1ccc(S(=O)(=O)Oc2ccc(S3(=O)=N[Se]c4cc(OS(=O)(=O)c5ccc(C)cc5)ccc43)cc2)cc1", "note": "(stereo unspecified)", "values": [{"measurement": "Activity", "setting": "[1]", "value": "inactive"}, {"measurement": "Activity", "setting": "[2]", "value": "Active"}, {"measurement": "inhibition", "setting": "[3]", "value": "Active"}, {"measurement": "Activity", "setting": "[4]", "value": "Active"}, {"measurement": "Activity", "setting": "[5]", "value": "Non-toxic"}, {"measurement": "Activity", "setting": "[6]", "value": "Active; Superior To That Of Reference Compound Gw9662"}, {"measurement": "Activity", "setting": "[7]", "value": "Active"}, {"measurement": "Activity", "setting": "[8]", "value": "Non-toxic"}, {"measurement": "Activity", "setting": "[9]", "value": "Non-toxic"}, {"measurement": "Activity", "setting": "[10]", "value": "Toxic"}, {"measurement": "Activity", "setting": "[11]", "value": "Non-toxic"}, {"measurement": "Activity", "setting": "[12]", "value": "Non-toxic"}, {"measurement": "inhibition", "setting": "[13]", "value": "Active"}, {"measurement": "inhibition", "setting": "[14]", "value": "Active"}, {"measurement": "Activity", "setting": "[15]", "value": "Active"}, {"measurement": "Activity", "setting": "[16]", "value": "Active"}, {"measurement": "Activity", "setting": "[17]", "value": "Active"}, {"measurement": "Activity", "setting": "[18]", "value": "Active"}, {"measurement": "Activity", "setting": "[19]", "value": "Active"}, {"measurement": "Activity", "setting": "[20]", "value": "Active"}, {"measurement": "Activity", "setting": "[21]", "value": "Active"}]}
